Results: the NIST ThermoML archive (doi:10.1016/j.jct.2019.03.001)
Numbers after ± are expanded uncertainties.

Assay: refractive index (Na D-line) (dimensionless)
Details: 293.15 K; 101.33 kPa; Liquid; Standard Abbe refractometry

refractive index: 1.3993 ± 0.0007
SMILES: CCCCO [butan-1-ol]
